Patent publication US6875865B1, “Selected derivatives of K-252a” (Cephalon, Inc., priority 1996, dated 2005)

Test system: dissociated spinal cord cultures
Experiment: Spinal Cord ChAT Activity Assay
Format: cell-based, rat
Details: maximum efficacy at 30 nM
Protocol: The effect of selected ring substituted K-252a derivatives on CHAT activity was assayed in dissociated spinal cord cultures prepared from fetal rats using the procedure described in U.S. Pat. No. 5,461,146, Columns 26 and 27, Examples 6 and 7. ChAT is the enzyme that catalyzes the synthesis of the neurotransmitter acetylcholine, and it is a specific biochemical marker for cholinergic neurons. In the spinal cord, the large majority of cholinergic neurons are motor neurons. Assay of this enzyme may thus be used as an indication of the effects of a factor, or actors, on the survival of cholinergic neurons and/or regulation of this enzyme.
(§1) Compounds which increased ChAT activity at least 120% of the control activity are considered active.

Row | Structure (SMILES) | ChAT Activity maximum efficacy % of Control (conc)
1 | COC(=O)C=Cc1ccc2c(c1)c1c3c(c4c5cc(C=CC(=O)OC)ccc5n5c4c1n2C1CC(O)(C(=O)OC)C5(C)O1)CNC3=O (stereo not drawn) [Compound 1] | 153 (30 nM) % of Control
2 | COCc1ccc2c(c1)c1c3c(c4c5cc(C=Cc6ccccn6)ccc5n5c4c1n2C1CC(O)(C(=O)OC)C5(C)O1)CNC3=O (stereo not drawn) [Compound 116] | 231 (30 nM) % of Control
3 | CCOCc1ccc2c(c1)c1c3c(c4c5cc(C=Cc6ccccn6)ccc5n5c4c1n2C1CC(O)(C(=O)OC)C5(C)O1)CNC3=O (stereo not drawn) [Compound 117] | 232 (30 nM) % of Control
4 | CCSCc1ccc2c(c1)c1c3c(c4c5cc(C=Cc6ccccn6)ccc5n5c4c1n2C1CC(O)(C(=O)OC)C5(C)O1)CNC3=O (stereo not drawn) [Compound 118] | 249 (30 nM) % of Control
5 | COC(=O)C1(O)CC2OC1(C)n1c3ccc(C=Cc4ccccn4)cc3c3c4c(c5c6cc(CSc7ccccn7)ccc6n2c5c31)C(=O)NC4 (stereo not drawn) [Compound 119] | 272 (30 nM) % of Control

Same assay, conditions: maximum efficacy at 300 nM

Row | Structure (SMILES) | ChAT Activity maximum efficacy % of Control (conc)
6 | COC(=O)C1(O)CC2OC1(C)n1c3ccc(CCOC=O)cc3c3c4c(c5c6cc(CCOC=O)ccc6n2c5c31)C(=O)NC4 (stereo not drawn) [Compound 70b] | 169 (300 nM) % of Control
7 | COC(=O)C1(O)CC2OC1(C)n1c3ccc(C=Cc4ccccn4)cc3c3c4c(c5c6cc(CSc7nc8ccccc8[nH]7)ccc6n2c5c31)C(=O)NC4 (stereo not drawn) [Compound 120] | 257 (300 nM) % of Control
8 | CCC=Cc1ccc2c(c1)c1c3c(c4c5cc(C=Cc6ccccn6)ccc5n5c4c1n2C1CC(O)(C(=O)OC)C5(C)O1)CNC3=O (stereo not drawn) [Compound 122] | 279 (300 nM) % of Control

Test system: basal forebrain cultures
Experiment: Basal Forebrain ChAT Activity Assay
Format: cell-based, rat
Details: day six, concentration not given, tested between 10 nM and 500 nM, at least 120% of control = active
Protocol: Compounds of the invention were assessed for their ability to promote survival and increase in ChAT activity in basal forebrain cultures. ChAT activity in these cultures is a biochemical marker for the cholinergic neurons (less than 5% of the cells in culture), which represent the major cholinergic input to the hippocampal formation, olfactory nucleus, interpeduncular nucleus, cortex, amygdala, and parts of the thalamus. […] The basal forebrain was dissected from embryonic day 17 or 18 rat embryos and the cells were […] with Dispase™ (neutral protease, Collaborative Research). Neurons were plated at 5×10^4 cells/well (1.5×10^5 cells/cm^2) in wells of 96-well plates previously coated with […] and laminin. Cells were cultured in serum-free N2 medium containing 0.05% bovine serum albumin (BSA) (Bottenetein et al., supra) at 37° in a humidified atmosphere of 5% CO2/95% air. ChAT activity was measured in vitro at day six, using a modification of the Formum procedure (supra) according to McManaman et al. (supra) and Glicksman et al. (J. Neurochem. 61:210-221, 1993).
as §1

Row | Structure (SMILES) | ChAT Activity maximum efficacy % of Control (conc)
9 | COC(=O)C1(O)CC2OC1(C)n1c3ccc(C(=O)CSc4ncccn4)cc3c3c4c(c5c6cc(C(=O)CSc7ncccn7)ccc6n2c5c31)C(=O)NC4 (stereo not drawn) [Compound 49] | <120 % of Control
10 | COC(=O)C1(O)CC2OC1(C)n1c3ccc(CCI)cc3c3c4c(c5c6cc(CCI)ccc6n2c5c31)C(=O)NC4 (stereo not drawn) [Compound 70a] | <120 % of Control
11 | COC(=O)C1(O)CC2OC1(C)n1c3ccc(CCN4CCCCC4)cc3c3c4c(c5c6cc(CCN7CCCCC7)ccc6n2c5c31)C(=O)NC4 (stereo not drawn) [Compound 75] | <120 % of Control
12 | COC(=O)C1(O)CC2OC1(C)n1c3ccc(CCN4CCOCC4)cc3c3c4c(c5c6cc(CCN7CCOCC7)ccc6n2c5c31)C(=O)NC4 (stereo not drawn) [Compound 76] | <120 % of Control
13 | COC(=O)C1(O)CC2OC1(C)n1c3ccc(CCN(C)CCO)cc3c3c4c(c5c6cc(CCN(C)CCO)ccc6n2c5c31)C(=O)NC4 (stereo not drawn) [Compound 78] | <120 % of Control
14 | CNCCc1ccc2c(c1)c1c3c(c4c5cc(CCNC)ccc5n5c4c1n2C1CC(O)(C(=O)OC)C5(C)O1)CNC3=O (stereo not drawn) [Compound 79] | <120 % of Control
15 | COC(=O)C1(O)CC2OC1(C)n1c3ccc(CCNCc4ccc(OC)cc4)cc3c3c4c(c5c6cc(CCNCc7ccc(OC)cc7)ccc6n2c5c31)C(=O)NC4 (stereo not drawn) [Compound 80] | <120 % of Control
16 | COC(=O)C1(O)CC2OC1(C)n1c3ccc(CCCN4CCOCC4)cc3c3c4c(c5c6cc(CCCN7CCOCC7)ccc6n2c5c31)C(=O)NC4 (stereo not drawn) [Compound 83] | <120 % of Control
17 | CCN(CC)CCCc1ccc2c(c1)c1c3c(c4c5cc(CCCN(CC)CC)ccc5n5c4c1n2C1CC(O)(C(=O)OC)C5(C)O1)CNC3=O (stereo not drawn) [Compound 84] | <120 % of Control
18 | COC(=O)CSCCc1ccc2c(c1)c1c3c(c4c5cc(CCSCC(=O)OC)ccc5n5c4c1n2C1CC(O)(C(=O)OC)C5(C)O1)CNC3=O (stereo not drawn) [Compound 89] | <120 % of Control
19 | CCOC(=O)CCSCCc1ccc2c(c1)c1c3c(c4c5cc(CCSCCC(=O)OCC)ccc5n5c4c1n2C1CC(O)(C(=O)OC)C5(C)O1)CNC3=O (stereo not drawn) [Compound 90] | <120 % of Control
20 | COC(=O)C1(O)CC2OC1(C)n1c3ccc(CCSc4ccncc4)cc3c3c4c(c5c6cc(CCSc7ccncc7)ccc6n2c5c31)C(=O)NC4 (stereo not drawn) [Compound 93] | <120 % of Control
21 | COC(=O)C1(O)CC2OC1(C)n1c3ccc(CCCSc4nc5ccccc5s4)cc3c3c4c(c5c6cc(CCCSc7nc8ccccc8s7)ccc6n2c5c31)C(=O)NC4 (stereo not drawn) [Compound 96] | <120 % of Control
22 | COC(=O)C1(O)CC2OC1(C)n1c3ccc(COCCN(C)C)cc3c3c4c(c5c6cc(C=Cc7ccccn7)ccc6n2c5c31)C(=O)NC4 (stereo not drawn) [Compound 104] | <120 % of Control

Same assay, conditions: day six, maximum efficacy at 50 nM

Row | Structure (SMILES) | ChAT Activity maximum efficacy % of Control (conc)
23 | COC(=O)C1(O)CC2OC1(C)n1c3ccccc3c3c4c(c5c6cc(C#CCN(C)C)ccc6n2c5c31)C(=O)NC4 (stereo not drawn) [Compound 61] | 166 (50 nM) % of Control
24 | COCc1ccc2c(c1)c1c3c(c4c5cc(C=Cc6ccccn6)ccc5n5c4c1n2C1(C)OC5CC1(O)C(=O)OC)C(=O)NC3 (stereo not drawn) [Compound 102] | 176 (50 nM) % of Control
25 | CCOCc1ccc2c(c1)c1c3c(c4c5cc(C=Cc6ccccn6)ccc5n5c4c1n2C1(C)OC5CC1(O)C(=O)OC)C(=O)NC3 (stereo not drawn) [Compound 103] | 154 (50 nM) % of Control
26 | CCSCc1ccc2c(c1)c1c3c(c4c5cc(C=Cc6ccccn6)ccc5n5c4c1n2C1(C)OC5CC1(O)C(=O)OC)C(=O)NC3 (stereo not drawn) [Compound 105] | 136 (50 nM) % of Control

Same assay, conditions: day six, maximum efficacy at 250 nM

Row | Structure (SMILES) | ChAT Activity maximum efficacy % of Control (conc)
27 | COC(=O)C1(O)CC2OC1(C)n1c3ccc(C(=O)CSc4ccncc4)cc3c3c4c(c5c6ccccc6n2c5c31)C(=O)NC4 (stereo not drawn) [Compound 42b] | 164 (250 nM) % of Control
28 | COC(=O)C1(O)CC2OC1(C)n1c3ccc(C=CCN(C)C)cc3c3c4c(c5c6cc(C=CCN(C)C)ccc6n2c5c31)C(=O)NC4 (stereo not drawn) [Compound 64] | 165 (250 nM) % of Control
29 | COC(=O)C1(O)CC2OC1(C)n1c3ccc(CCCOC=O)cc3c3c4c(c5c6cc(CCCOC=O)ccc6n2c5c31)C(=O)NC4 (stereo not drawn) [Compound 73b] | 171 (250 nM) % of Control
30 | COC(=O)C1(O)CC2OC1(C)n1c3ccc(CCCO)cc3c3c4c(c5c6cc(CCCO)ccc6n2c5c31)C(=O)NC4 (stereo not drawn) [Compound 73c] | 190 (250 nM) % of Control
31 | CCN(CC)CCc1ccc2c(c1)c1c3c(c4c5cc(CCN(CC)CC)ccc5n5c4c1n2C1CC(O)(C(=O)OC)C5(C)O1)CNC3=O (stereo not drawn) [Compound 77] | 132 (250 nM) % of Control
32 | COC(=O)C1(O)CC2OC1(C)n1c3ccc(CCCN4CCCCC4)cc3c3c4c(c5c6cc(CCCN7CCCCC7)ccc6n2c5c31)C(=O)NC4 (stereo not drawn) [Compound 82] | 150 (250 nM) % of Control
33 | COC(=O)C1(O)CC2OC1(C)n1c3ccc(CSCCN(C)C)cc3c3c4c(c5c6cc(C=Cc7ccccn7)ccc6n2c5c31)C(=O)NC4 (stereo not drawn) [Compound 106] | 135 (250 nM) % of Control
